For 36 compounds, IC50 results are on record in patent US20240343727A1, “PYRIDAZINONE OR PYRIDINONE COMPOUNDS, PREPARATION METHODS AND USES THEREOF” (InventisBio Co., Ltd., priority 2021, published 2024).

The structures appear in SMILES notation.

The target of this assay is T1, PARP7 (Homo sapiens, UniProt Q7Z3E1).
T1 sequence (Q7Z3E1 1-657): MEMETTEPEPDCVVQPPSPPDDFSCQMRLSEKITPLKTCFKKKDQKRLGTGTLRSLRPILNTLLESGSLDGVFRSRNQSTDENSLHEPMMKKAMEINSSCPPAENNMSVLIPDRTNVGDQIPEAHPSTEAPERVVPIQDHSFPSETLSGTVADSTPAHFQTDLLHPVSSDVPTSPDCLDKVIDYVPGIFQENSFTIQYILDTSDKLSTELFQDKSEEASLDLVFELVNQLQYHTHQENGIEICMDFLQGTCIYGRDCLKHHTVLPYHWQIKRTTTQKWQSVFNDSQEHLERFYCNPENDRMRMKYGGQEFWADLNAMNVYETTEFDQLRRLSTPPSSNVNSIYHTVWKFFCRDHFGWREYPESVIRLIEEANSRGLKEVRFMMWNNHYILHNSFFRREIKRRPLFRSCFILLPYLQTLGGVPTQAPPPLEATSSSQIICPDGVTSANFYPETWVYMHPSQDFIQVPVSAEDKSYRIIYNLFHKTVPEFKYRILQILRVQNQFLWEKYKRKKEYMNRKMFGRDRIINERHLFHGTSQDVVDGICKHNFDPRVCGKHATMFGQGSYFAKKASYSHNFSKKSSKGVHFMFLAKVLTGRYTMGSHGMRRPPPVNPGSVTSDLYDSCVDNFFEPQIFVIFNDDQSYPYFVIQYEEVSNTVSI
Nature of the assay: PARP7 TR-FRET assay (binding, displacement of biotinylated Probe A). The settings on record: 6 nM PARP7, 2 nM Probe A, 25° C., 30 min. In a few lines:
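His-tagged PARP7 at 6 nM was preincubated with compound and 2 nM biotinylated Probe A for 30 min at 25° C (HEPES pH 8.0, NaCl, BSA, DTT, Tween20). Europium-streptavidin/ULight-anti-His FRET was read as the 665/615 nm ratio after a further 30 min. IC50 was fitted from % inhibition normalised to vehicle and blank.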
In general terms: In TR-FRET formats the signal depends on donor and acceptor labels being close together.
For `O=C(c1cccc(Oc2n[nH]c(=O)c(C(F)(F)F)c2NCC2CCOCC2)c1)N1CCN(c2ncc(C(F)(F)F)cn2)CC1` [Compound 203], the IC50 (commonly the concentration that gives 50% inhibition) was < 100 nM.

Take `O=C(CC1CN(c2cc(C(F)(F)F)c(=O)[nH]n2)c2cc(C3CC3)ccc2O1)N1CCN(c2ncc(C(F)(F)F)cn2)CC1` (single isomer, unassigned) [Compound 134]: the IC50 is < 100 nM. As to `C[C@@H]1CN(C(=O)c2cc(Oc3n[nH]c(=O)c(C(F)(F)F)c3N3CC4(C3)CC(F)(F)C4)ccn2)CCN1c1cnc(C(F)(F)F)cn1` [Compound 147], the IC50 was < 100 nM.

`O=C(c1cccc(Oc2n[nH]c(=O)c(C(F)(F)F)c2N2CC3(CCC3)C2)c1)N1CCn2c(nnc2C(F)(F)F)C1` [Compound 178] showed an IC50 of 100 to 1000 nM. The value for `Cc1c(Oc2cc(C(=O)N3CCN(c4ncc(C(F)(F)F)cn4)CC3)ccc2Cl)n[nH]c(=O)c1C(F)(F)F` [Compound 24] was 100 to 1000 nM; that for `N#Cc1ccc2c(c1)N(c1cc(C(F)(F)F)c(=O)[nH]n1)CC(CC(=O)N1CCN(c3ncc(C(F)(F)F)cn3)CC1)O2` (stereo not drawn) [Compound 136] was < 100 nM; that for `CS(=O)(=O)c1ccc2c(c1)N(c1cc(C(F)(F)F)c(=O)[nH]n1)CC(CC(=O)N1CCN(c3ncc(C(F)(F)F)cn3)CC1)O2` (single isomer, unassigned) [Compound 206] was < 100 nM. Take `CS(=O)(=O)c1ccc2c(c1)N(c1cc(C(F)(F)F)c(=O)[nH]n1)CC(CC(=O)N1CCN(c3ncc(C(F)(F)F)cn3)CC1)O2` (single isomer, unassigned) [Compound 205]: the half-inhibitory concentration (IC50) is < 100 nM. Compound `C[C@@H]1CN(C(=O)CC2CN(c3cc(C(F)(F)F)c(=O)[nH]n3)c3cc(Cl)ccc3O2)CCN1c1ncc(C#N)cn1` (single isomer, unassigned) [Compound 330] displayed a concentration for half-maximal inhibition (IC50) of 100 to 1000 nM. In the case of `CN1CC2(C1)CN(c1c(Oc3cccc(C(=O)N4CCN(c5ncc(C(F)(F)F)cn5)CC4)c3)n[nH]c(=O)c1C(F)(F)F)C2` [Compound 69], the half-inhibitory concentration (IC50) was < 100 nM. As to `C#Cc1ccc2c(=O)[nH]nc(N3CCOC(CC(=O)N4CCN(c5ncc(C(F)(F)F)cn5)CC4)C3)c2c1` (single isomer, unassigned) [Compound 195], the half-inhibitory concentration (IC50) is < 100 nM.

For `O=C(COC1CCOc2c1n[nH]c(=O)c2C1CC1)N1CCN(c2ncc(C(F)(F)F)cn2)CC1` (single isomer, unassigned) [Compound 128], the IC50 was < 100 nM. Regarding `N#Cc1ccc2c(c1)N(c1cc(C(F)(F)F)c(=O)[nH]n1)CC(CC(=O)N1CCN(c3ncc(C(F)(F)F)cn3)CC1)O2` (single isomer, unassigned) [Compound 201], the IC50 fell in the range of 100 to 1000 nM. Compound `C[C@@H]1CN(c2n[nH]c(=O)c3c(F)cccc23)C[C@H](CC(=O)N2CCN(c3ncc(C(F)(F)F)cn3)CC2)O1` (stereo in doubt) [Compound 118] had a half-inhibitory concentration (IC50) of 100 to 1000 nM. The value for `C[C@@H]1CN(C(=O)c2cc(Oc3n[nH]c(=O)c(C(F)(F)F)c3N3CC4(CCC4)C3)ccn2)CCN1c1ncc(C(F)(F)F)cn1` [Compound 352] was < 100 nM; that for `O=C(c1cc(Oc2n[nH]c(=O)c(C(F)(F)F)c2N2CC3(C2)CC(F)(F)C3)ccn1)N1CCN(c2ncc(C3CC3)cn2)CC1` [Compound 308] was < 100 nM. For the compound `N#Cc1ccc(N2CCN(C(=O)CC3CN(c4cc(C(F)(F)F)c(=O)[nH]n4)c4cc(Cl)ccc4O3)CC2)nc1` (single isomer, unassigned) [Compound 225], the half-maximal inhibitory concentration (IC50) fell in the range of 100 to 1000 nM. As for `Cc1c(N2CCOC(CC(=O)N3CCN(c4ncc(C(F)(F)F)cn4)CC3)C2)n[nH]c(=O)c1C(F)(F)F` (single isomer, unassigned) [Compound 38], the IC50 was < 100 nM. The value for `COCC1CN(c2c(Oc3cccc(C(=O)N4CCN(c5ncc(C(F)(F)F)cn5)CC4)c3)n[nH]c(=O)c2C(F)(F)F)C1` [Compound 186] was < 100 nM; that for `N#Cc1cnc(N2CCN(C(=O)CC3CN(c4cc(C(F)(F)F)c(=O)[nH]n4)c4cc(F)ccc4O3)CC2)nc1` (single isomer, unassigned) [Compound 265] was 100 to 1000 nM; that for `C#Cc1c(C)c(Oc2cccc(C(=O)N3CCN(c4ncc(C(F)(F)F)cn4)CC3)c2)n[nH]c1=O` [Compound 75] was < 100 nM.

For `CC1CN(c2c(Oc3cccc(C(=O)N4CCN(c5ncc(C(F)(F)F)cn5)CC4)c3)n[nH]c(=O)c2C(F)(F)F)C1` [Compound 181], the IC50 is < 100 nM. For the compound `O=C(CC1CN(c2cc(C(F)(F)F)c(=O)[nH]n2)c2ccccc2O1)N1CCN(c2ccc(C3CC3)cn2)CC1` (single isomer, unassigned) [Compound 286], the IC50 was > 1000 nM.

On to `O=C(CC1CN(c2cc(C(F)(F)F)c(=O)[nH]n2)c2cc(N3CCOCC3=O)ccc2O1)N1CCN(c2ncc(C(F)(F)F)cn2)CC1` (single isomer, unassigned) [Compound 282], for which the half-maximal inhibitory concentration (IC50) is < 100 nM. Take `O=C(c1cccc(Oc2n[nH]c(=O)c(C(F)(F)F)c2N2CC3(CCC3)C2)c1)N1CCN(c2cnc(C(F)F)cn2)CC1` [Compound 189]: the IC50 was < 100 nM. The same measure for `C[C@H]1CN(c2n[nH]c(=O)c3cccc(F)c23)C[C@H](CC(=O)N2CCN(c3ncc(C(F)(F)F)cn3)CC2)O1` (stereo in doubt) [Compound 88]: 100 to 1000 nM; for `O=C(CC1CN(c2cc(C(F)(F)F)c(=O)[nH]n2)c2ccncc2O1)N1CCN(c2ncc(C(F)(F)F)cn2)CC1` (stereo not drawn) [Compound 347]: < 100 nM. Regarding `CCOC1CN(c2c(Oc3ccnc(C(=O)N4CCN(c5ncc(C(F)(F)F)cn5)CC4)c3)n[nH]c(=O)c2C(F)(F)F)C1` [Compound 320], the IC50 is < 100 nM. `O=C(CC1CN(c2cc(C(F)(F)F)c(=O)[nH]n2)c2cc(C(F)F)ccc2O1)N1CCN(c2cnc(C(F)(F)F)cn2)CC1` (single isomer, unassigned) [Compound 146] came in with an IC50 of 100 to 1000 nM. `O=C(CC1CN(c2cc(C(F)(F)F)c(=O)[nH]n2)c2ccc(F)cc2O1)N1CCN(c2ncc(C(F)(F)F)cn2)CC1` (single isomer, unassigned) [Compound 157]: the IC50 was < 100 nM. In the case of `O=C(c1cccc(Oc2n[nH]c(=O)c(C(F)(F)F)c2N2CC3(CCC3)C2)c1)N1CCN(c2nnc(C(F)(F)F)s2)CC1` [Compound 231], the IC50 is < 100 nM. In the case of `CN1CC[C@@H](OCC(=O)N2CCN(c3ncc(C(F)(F)F)cn3)CC2)c2n[nH]c(=O)c(C(F)(F)F)c21` (single isomer, unassigned) [Compound 4], the IC50 is < 100 nM. Regarding `O=C(CC1CN(c2n[nH]c(=O)c3cc(Cl)ccc23)CCO1)N1CCN(c2ncc(C(F)(F)F)cn2)CC1` (single isomer, unassigned) [Compound 99], the IC50 was < 100 nM. The compound `CNCc1ccc2c(c1)N(c1cc(C(F)(F)F)c(=O)[nH]n1)CC(CC(=O)N1CCN(c3ncc(C(F)(F)F)cn3)CC1)O2` (single isomer, unassigned) [Compound 297] returned an IC50 of 100 to 1000 nM. On to `O=C(CC1CN(c2cc(C(F)(F)F)c(=O)[nH]n2)c2cc(C(F)F)ccc2O1)N1CCN(c2ncc(C(F)(F)F)cn2)CC1` (single isomer, unassigned) [Compound 228], for which the IC50 was < 100 nM. `O=C(c1cccc(Oc2n[nH]c(=O)c(C(F)(F)F)c2N2CC3(CCO3)C2)c1)N1CCN(c2ncc(C(F)(F)F)cn2)CC1` [Compound 212]: the IC50 was < 100 nM.
